In this test the test system is CEM cells HIV-1 protection, formazan growth assay. As to the kind of experiment: NCI AIDS Antiviral Assay. To be noted: for IC50: measured here: growth of uninfected CEM cells. The procedure, abridged:
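Steps: treat uninfected and HIV-1-infected human CEM cells at five drug levels; quantify growth by soluble formazan; retest any compound reaching 50% protection; classify actives from the retest.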

Activity calls are given as the source filed them.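 Rule for the calls: active = compounds giving half or more protection of infected cells from virus-caused growth loss, again on retest; inactive = the rest.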 Where a SMILES comes first, the peptide text is derived from it. The star is where a group is joined. Boc = CC(C)(C)OC(=O)*

In general, EC50 refers to the midpoint of the concentration-response curve. The term IC50 denotes the concentration that gives 50% inhibition. A low value points to inhibition by little substance. As to `Cc1ccc(NC(=O)NC23CC4CC(CC(F)(C4)C2)C3)cc1`, the EC50 was above 61.7 µM and the IC50 was above 61.7 µM.

With `C=C(C)[C@@H]1CC[C@]2(C(=O)O)CC[C@]3(C)[C@H](CCC4[C@@]5(C)CC[C@H](C(=O)/C=C/c6ccc(O)c(O)c6)C(C)(C)[C@@H]5CC[C@]43C)[C@@H]12` (some centres not stated), the EC50 was above 200 µM and the IC50 came out at 2.29 µM. Consider `CON(C)C(=O)C(C)NC(=O)OC(C)(C)C` (configuration not stated), for which the EC50 is above 155 µM and the IC50 was above 155 µM. As to `C1=C(C2CCCC3[C@@H]4C[C@@H](CN23)C2CCCCN2C4)CCC2[C@H]3C[C@H](CN12)C1CCCCN1C3` (some centres not stated), the EC50 is above 21.4 µM and the IC50 was above 21.4 µM. As for `CC(C)(CO)NC(=O)c1cccs1`, the EC50 was above 200 µM and the IC50 was above 200 µM. As to `COc1ccc(N=Cc2c(O)ccc3c2oc2cc(Cl)c(O)c(Cl)c23)cc1`, the EC50 was above 200 µM and the IC50 worked out at 2.95 µM. Regarding `OC(OCC(COC(O)C(Br)Br)(COC(O)C(Br)Br)COC(O)C(Br)Br)C(Br)Br` (configuration not stated), the EC50 was above 100 µM and the IC50 was above 100 µM.

Take `COC1C=CC(O)C(CO)O1` (configuration not stated): the outcome was inactive.

Consider `O=[N+]([O-])c1cnn(C2=CNc3ccccc3N=C2)c1`, for which the EC50 was above 7.41 µM and the IC50 is above 7.41 µM. For `Nc1nc(Cl)c(N)c(NCC2(CO)CCC2)n1`, the EC50 was above 200 µM and the IC50 was 115 µM. With `Oc1ccc(O)c(-n2cccn2)c1`, the EC50 is above 14.1 µM and the IC50 came out at 7.24 µM. For `O=C1CCCC(=O)N1n1c(Cc2ccc(Cl)cc2)n[nH]c1=O`, the EC50 is above 200 µM and the IC50 was above 200 µM. In the case of `N#C/C(=C\c1cccc(F)c1)C(=O)c1ccccc1`, the EC50 was above 39.8 µM and the IC50 is above 39.8 µM. Turning to `CCCc1cc(=O)oc2c3c(c4c(c12)OC(C)(C)CC4)O[C@H](C)[C@H](C)C3=O`, the EC50 is above 30.2 µM and the IC50 worked out at 13.2 µM. The corresponding values for `O=C(/C=C/c1ccc(Br)cc1)c1ccccc1` are above 18.2 µM and 9.55 µM. In the case of `COC(=O)C1=C(O)C(C(=O)OC)C2(C3CC=CC3)C(C(=O)OC)=C(O)C(C(=O)OC)C12` (configuration not stated), the EC50 was above 214 µM and the IC50 was above 214 µM. For `COc1c2occc2c(N=Cc2c[nH]c3ccccc23)c2ccc(=O)oc12`, the EC50 is above 50.1 µM and the IC50 was found to be 28.2 µM. For `CN1C(C)(c2ccccc2)c2ccccc2S1(=O)=O` (configuration not stated), the half-maximal effective concentration (EC50) was 3.89 µM and the IC50 was 85.1 µM. In the case of `[C-]#[N+]CS(=O)(=O)c1ccc(C)cc1`, the EC50 was above 479 µM and the IC50 is above 479 µM. For the molecule `C1Cn2nnnc2N1`, the EC50 was above 2240 µM and the IC50 is above 2240 µM. Take `CCOC(CC1(O)C(=O)N(Cc2ccccc2)c2ccccc21)OCC` (configuration not stated): the EC50 was above 200 µM and the IC50 is above 200 µM. As for `c1ccc2c(Nc3ncco3)cccc2c1`, the EC50 is above 200 µM and the IC50 was 162 µM. As for `C/C=C(/CCO)[Si](C)(C)C`, the outcome was inactive.

With `COC1/C=C/OC2(C)Oc3c(C)c(O)c4c(O)c(c(/C=N/N(C)c5nc6c(N)ncnc6n5C5OC(CO)C(O)C5O)c(O)c4c3C2=O)NC(=O)C(C)=C/C=C/C(C)C(O)C(C)C(O)C(C)C(OC(C)=O)C1C` (configuration not stated), the EC50 was above 200 µM and the IC50 came to 112 µM. Turning to `CC(C)OC(=O)c1ccc(NCc2cc(O)ccc2O)cc1Cl`, the EC50 is above 200 µM and the IC50 is 3.63 µM.

Turning to `CSC(Cc1ccc2c(c1)Sc1ccccc1O2)=[N+]1CCOCC1`, the EC50 is above 200 µM and the IC50 came out at 44.7 µM. As for `CC1(c2ccc(Cl)cc2)C2C(=O)NC(=O)C1C(=O)NC2=O` (configuration not stated), the EC50 was above 813 µM and the IC50 turned out to be 490 µM. As for `N#Cc1c(OCCF)c2ccccc2n2c1nc1ccccc12`, the EC50 is above 100 µM and the IC50 was above 100 µM. `COC(=O)C1(NC(=O)C(N)CC(=O)O)C(C)C1C` (configuration not stated): the EC50 is above 200 µM and the IC50 was above 200 µM.

Take `O=C1NC2(CCCCC2)C2CCCCC=C12` (configuration not stated): the result was inactive.

Turning to `O=C1c2c(O)ccc(O)c2C(=O)c2c(NCCCO)ccc(NCCCO)c21`, the EC50 was 13.5 µM and the IC50 was determined as 18.6 µM.

For `CC12CCC(=O)N1c1ccc(Cl)cc1N2` (configuration not stated), the EC50 was above 115 µM and the IC50 is above 115 µM. On to `CCOC(=O)c1c(-c2ccc(Cl)cc2)c(C#N)c(=S)n(C2OC(CO)C(O)C(O)C2O)c1-c1ccccc1` (configuration not stated), for which the EC50 is above 200 µM and the IC50 was found to be 34.7 µM.

Consider `Cn1nc(-c2ccccc2)c(C(=O)/C=C/c2ccc(Cl)cc2)c(N2CCCC2)c1=O`, for which the EC50 was above 15.1 µM and the IC50 amounted to 10.7 µM. `CC(=O)C1CC(C)=CCC12C(=O)Nc1ccccc12` (configuration not stated): the EC50 was above 195 µM and the IC50 was above 195 µM. As for `CC(=O)NNC(=S)N/C=C(/C(=O)c1ccccc1)c1ccccc1`, the EC50 was above 479 µM and the IC50 turned out to be 302 µM. For `C/C(=N\NC(=S)Nc1ccc(C(=O)O)cc1)c1ccccn1`, the EC50 is above 110 µM and the IC50 was found to be 18.2 µM.

As for `CC(NC(=O)C(CCCCN)NC(=O)C(N)CC(=O)O)C(=O)NC(CO)C(=O)NC(Cc1ccc(O)cc1)C(=O)NC(CO)C(=O)NC(C(=O)NC(CC(N)=O)C(=O)NC(Cc1cnc[nH]1)C(=O)O)C(C)O` (configuration not stated) (H-DKASYSTNH-OH; configuration not given here), the EC50 was above 49 µM and the IC50 is above 49 µM. On to `O=S(=O)([O-])[O-].[Fe+2].c1ccc(/C(=N\Nc2ccccn2)c2ccccn2)cc1`, for which the result was inactive. As to `COc1cc2c3c(c1)ncn3C(=O)CS2`, the EC50 was above 200 µM and the IC50 was above 100 µM. On to `c1cn[nH]c1`, for which the EC50 was above 3630 µM and the IC50 was found to be 1780 µM.

With `CCOc1ccccc1N=Nc1ccc2oc(=O)c(C(C)=O)cc2c1`, the EC50 was above 8.13 µM and the IC50 was above 8.13 µM. As to `CC(C)(C)OC(=O)NC1CCCC1=O` (configuration not stated), the result was inactive. Take `NS(=O)(=O)c1ccc(N2C(=O)C(=O)N(c3ccccc3)C2=S)cc1`: the EC50 was above 200 µM and the IC50 was found to be 19.5 µM. Take `CCOC(=O)c1nc(SC)sc1NC(=O)c1ccccc1[N+](=O)[O-]`: the EC50 was 195 µM and the IC50 was above 200 µM. For `C/C=C1\CNC1C(=O)O` (configuration not stated), the EC50 was above 200 µM and the IC50 is above 200 µM. As to `COC(=O)C(Cc1ccccc1)NP(=O)(O)OCC1OC(n2cc(Br)c(=O)[nH]c2=O)CC1O` (configuration not stated), the EC50 was above 200 µM and the IC50 was above 200 µM. Turning to `Cc1ccc(N=Nc2c(O)c3ccccc3[nH]c2=O)c(S(=O)(=O)N(C)C)c1`, the EC50 is above 200 µM and the IC50 is above 200 µM. On to `Cc1cc(=O)[nH]c(NN2C(Cl)C(=O)C2c2cccc(O)c2)n1` (configuration not stated), for which the EC50 was above 295 µM and the IC50 is 1.86 µM. Consider `Cn1cc(-c2ccc3c4ccccc4n(C)c3c2)c2ccccc21`, for which the EC50 was above 8.71 µM and the IC50 is above 8.71 µM. For `CCCCOC(=S)SSC(=S)NCCNC(=S)SSC(=S)OCCCC`, the EC50 was above 200 µM and the IC50 was determined as 55 µM. Take `NC(CSSCC(N)Cc1ccccc1)Cc1ccccc1` (configuration not stated): the EC50 was above 617 µM and the IC50 was 20.4 µM. `Cc1cc(C)nc(NS(=O)(=O)c2ccc(NNc3c4ccccc4nc4c(C(=O)Nc5ccc(S(=O)(=O)Nc6ncccn6)cc5)cccc34)cc2)n1`: the EC50 was above 200 µM and the IC50 stood at 29.5 µM.

Regarding `CC(C)(C)OC(=O)NC(Cc1ccc(O)cc1)C(=O)NC(CCCCN)C(=O)O` (stereo not drawn) (Boc-Tyr-Lys-OH; configuration not given here), the EC50 is above 200 µM and the IC50 was 91.2 µM.

As to `O=C(/C=C/c1ccc(Cl)cc1)c1ccncc1`, the EC50 was above 40.7 µM and the IC50 worked out at 38 µM.

`CC(C)=CCCC1(C)C=Cc2c(c(C)cc3c2[nH]c2ccccc23)O1` (configuration not stated): the EC50 was above 21.9 µM and the half-inhibitory concentration (IC50) is 12 µM. With `CCN(CC)CCSc1c(C(C)=O)c(=O)n(-c2ccccc2)c(=S)n1-c1ccccc1`, the EC50 is above 200 µM and the IC50 is 1.15 µM.

Consider `COc1ccc2nc3c(nc2c1)C(C)(C)C=C3c1ccc(Br)cc1`, for which the EC50 is above 100 µM and the IC50 is above 100 µM. In the case of `Cn1c(=O)c2nc(NCCO)cnc2n(C)c1=O`, the EC50 is above 200 µM and the IC50 came out at 85.1 µM. Consider `O=C1c2ccccc2C(=O)N1OCCCCON1C(=O)c2ccccc2C1=O`, for which the EC50 is above 200 µM and the IC50 is above 200 µM. As for `COC(=O)C1=C(CS(=O)c2ccc([N+](=O)[O-])cc2[N+](=O)[O-])C2C=CC1C2` (configuration not stated), the result was inactive. In the case of `C1=Nc2ccccc2/C1=C/c1c[nH]c2ccccc12`, the EC50 was 0.0631 µM and the IC50 was above 200 µM. As for `CC12CC/C(=N/NC(N)=O)C3C1CCCC32`, the outcome was inactive. Turning to `c1ccc(COc2ccc(C[P+](c3ccccc3)(c3ccccc3)c3ccccc3)cc2)cc1`, the EC50 was above 20 µM and the IC50 came out at 0.324 µM. On to `O=C1N[C@@H](Cc2ccccc2)C(=O)N2CCCC[C@H]12`, for which the result was inactive.

With `COc1cc(COC(=O)N2CCCCC2C(=O)O)c([N+](=O)[O-])cc1OC` (configuration not stated), the EC50 is above 676 µM and the IC50 was 457 µM. As to `NC(CSS(=O)(=O)c1ccccc1)C(=O)O` (configuration not stated), the EC50 is above 200 µM and the IC50 was above 200 µM. For `CN(C)c1ccc(/C=C(\C#N)c2ccc([N+](=O)[O-])cc2)c(Cl)c1`, the EC50 is above 100 µM and the IC50 was found to be 75.9 µM.

As for `O=C1c2cccn2-c2ccccc2SC1c1ccccc1` (configuration not stated), the EC50 was above 200 µM and the IC50 was 20.4 µM.

For the molecule `N#CCC(=O)NC1C2CC3CC(C2)CC1C3` (configuration not stated), the EC50 was above 229 µM and the IC50 was 34.7 µM. In the same order, the values of `C=CCSC[C@H](NC(=O)COc1ccccc1)C(=O)NC(C(=O)OCc1ccc([N+](=O)[O-])cc1)=C(C)C` are above 25.7 µM and above 25.7 µM.

On to `Clc1cnc2cccc3c2c1C=CN3`, for which the EC50 was above 129 µM and the IC50 turned out to be 52.5 µM. `Cc1nc(N)nc(N)c1-c1ccc(Cl)c(Cl)c1`: the EC50 was above 200 µM.

The record behind these values is PubChem BioAssay AID179 (DTP/NCI, 2004).
